In patent US9068080B2, “Merocyanine derivatives” (BASF SE, priority 2006, dated 2015):

Assay: UV absorption spectrum (λmax, ε) of the merocyanine UV filters
Format: physicochemical

Row | Structure (SMILES) | UV λmax (in CH3CN/H2O) | UV λmax (in EtOH) | ε (molar extinction at λmax) (in EtOH)
1 | CC1(C)CC(NCCC[Si](C)(O[Si](C)(C)C)O[Si](C)(C)C)=CC(=C(C#N)C#N)C1 [MC 07] | 382 nm | 381 nm | 52829
2 | CCOC(=O)/C(C#N)=C1\C=C(NCCC[Si](C)(O[Si](C)(C)C)O[Si](C)(C)C)CC(C)(C)C1 [MC 08] |  | 388 nm | 50383
3 | CCOC(=O)/C(C#N)=C1/C=C(NCCC[Si]2(C)O[Si](C)(CCCNC3=C/C(=C(\C#N)C(=O)OCC)CC(C)(C)C3)O[Si](C)(CCCNC3=C/C(=C(\C#N)C(=O)OCC)CC(C)(C)C3)O[Si](C)(CCCNC3=C/C(=C(\C#N)C(=O)OCC)CC(C)(C)C3)O2)CC(C)(C)C1 (stereo not shown) [MC 11] |  | 388 nm | 181817
4 | CCOC(=O)/C(C#N)=C\C=C\N(C)CCC[Si]1(C)O[Si](C)(CCCN(C)/C=C/C=C(/C#N)C(=O)OCC)O[Si](C)(CCCN(C)/C=C/C=C(/C#N)C(=O)OCC)O[Si](C)(CCCN(C)/C=C/C=C(/C#N)C(=O)OCC)O1 (stereo not shown) [MC 12] | 381 nm |  | 
5 | CCOC(=O)/C(C#N)=C\C=C\N(C)CCC[Si](C)(O[Si](C)(C)C)O[Si](C)(C)C [MC 13] | 381 nm | 380 nm | 69116
6 | CN(/C=C/C=C(C#N)C#N)CCC[Si](C)(O[Si](C)(C)C)O[Si](C)(C)C [MC 14] | 383 nm |  | 
7 | CN(/C=C/C=C(C#N)C#N)CCC[Si]1(C)O[Si](C)(CCCN(C)/C=C/C=C(C#N)C#N)O[Si](C)(CCCN(C)/C=C/C=C(C#N)C#N)O[Si](C)(CCCN(C)/C=C/C=C(C#N)C#N)O1 (stereo not shown) [MC 15] | 378 nm |  | 
